This note sets out measurements from US20260283966A1, “PROTEIN PARTICLES AND METHODS OF MAKING AND USING THE SAME” (Dairy Management Inc., priority 2023, published 2026).

A short description of this test: ABTS radical scavenging capacity. Type of test: biochemical. The settings on record: 0.05 mg mL^−1, all treatments. Here is the method: ABTS radical scavenging capacity was measured according to the previously published protocol with some modifications (Dong et al., 2016). The modifications are as follow: samples were dissolved in phosphate buffer (pH 7.4) to a concentration of 0.05 mg mL^−1. Next, a 200 μl aliquot of the sample was mixed with 20 μl of the ABTS working solution and the mixture was stored in dark for 20 min at room temperature (~25° C.).

The structures appear in SMILES notation.

Consider `N[C@@H](Cc1c[nH]c2ccccc12)C(=O)O` [Trp, L-Tryptophan], for which the “relative ABTS radical scavenging capacity” value was “strong relative ABTS radical scavenging capacity and was not influenced by treatments”.
